For orientation: pIC50 means the negative decadic logarithm of the IC50, by convention in mol/L.

pIC50: −log10 of the molar value. A value given as a limit tells only on which side of the number the result lay.

The values that follow come from patent US20240398828A1, “HETERO-ATOM CONTAINING COMPOUNDS AND USES THEREOF” (Kumquat Biosciences Inc., priority 2021, published 2024).

The target in one assay is T1, PTPN2 (i.e., TC-PTP) (Homo sapiens, UniProt P17706).
T1 sequence (P17706 1-415): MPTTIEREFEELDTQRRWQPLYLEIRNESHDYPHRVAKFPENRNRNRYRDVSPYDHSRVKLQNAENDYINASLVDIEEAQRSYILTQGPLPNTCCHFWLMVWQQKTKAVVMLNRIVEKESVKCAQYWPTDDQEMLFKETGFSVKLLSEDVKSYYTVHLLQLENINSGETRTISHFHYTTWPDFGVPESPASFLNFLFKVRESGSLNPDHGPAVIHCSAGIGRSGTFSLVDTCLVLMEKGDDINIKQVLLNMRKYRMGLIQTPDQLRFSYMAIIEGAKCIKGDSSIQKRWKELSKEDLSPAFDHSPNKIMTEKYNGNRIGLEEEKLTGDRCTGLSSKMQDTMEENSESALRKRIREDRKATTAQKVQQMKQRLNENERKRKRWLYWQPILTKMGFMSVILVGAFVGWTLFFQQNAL
Kind of assay: Phosphatase activity assay (DiFMUP substrate), PTPN2. Particulars: compounds binned ≤1 uM or >1 uM. Type of assay: biochemical. In short, it runs like this:
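First, serially diluted inhibitor is mixed about 2 minutes with enzyme in pH 7.5 HEPES/NaCl/EDTA/DTT/Tween-20 buffer. Next, DiFMUP is added at the enzyme's Km, approximately 45 μM for PTPN2. Finally, DiFMU appearance is read continuously at room temperature and rates are fitted for IC50.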

The target in the next assay is T2, PTPN1 (i.e., PTP1B) (Homo sapiens, UniProt P18031).
T2 sequence (P18031 1-435): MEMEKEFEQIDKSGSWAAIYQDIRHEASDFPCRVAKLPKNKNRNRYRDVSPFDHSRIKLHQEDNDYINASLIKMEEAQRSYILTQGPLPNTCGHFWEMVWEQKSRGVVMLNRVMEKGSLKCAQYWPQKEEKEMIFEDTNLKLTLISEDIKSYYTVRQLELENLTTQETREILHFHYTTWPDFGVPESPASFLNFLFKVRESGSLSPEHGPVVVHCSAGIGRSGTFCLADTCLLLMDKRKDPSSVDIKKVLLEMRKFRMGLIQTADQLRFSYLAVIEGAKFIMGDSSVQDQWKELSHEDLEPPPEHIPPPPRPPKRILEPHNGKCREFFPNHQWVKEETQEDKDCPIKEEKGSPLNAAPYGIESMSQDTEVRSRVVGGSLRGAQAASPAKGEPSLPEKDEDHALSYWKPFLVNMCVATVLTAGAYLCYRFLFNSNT
Kind of assay: Phosphatase activity assay (DiFMUP substrate), PTP1B. Type of assay: biochemical. Particulars: compounds binned ≤1 uM or >1 uM. The method in brief:
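Enzyme (e.g. PTPN2 0.025 ng/ul) mixed about 2 min with compound at 10 serial concentrations in 50 mM HEPES pH 7.5, 150 mM NaCl, 0.5 mM EDTA, 1 mM DTT, 0.001% Tween-20 at room temperature. DiFMUP added at each enzyme's Km (about 45 μM for PTPN2). DiFMU fluorescence (ex 360/em 450 nm) followed 15-30 min; IC50 from 4-parameter fit of rates.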

As for `N#Cc1cc(-c2ccc(O)c(N3CC(=O)NS3(=O)=O)c2F)[nH]n1` [Compound 439, 5-(3-(1,1-dioxido-4-oxo-1,2,5-thiadiazolidin-2-yl)-2-fluoro-4-hydroxyphenyl)-1H-pyrazole-3-carbonitrile], the pIC50 at PTPN2 (i.e., TC-PTP) is no less than 6.00; at PTPN1 (i.e., PTP1B), no less than 6.00.

On to `CCCCNc1ccc(-c2ccc(O)c(N3CC(=O)NS3(=O)=O)c2F)cn1` [Compound 215, 5-(3-(6-(butylamino)pyridin-3-yl)-2-fluoro-6-hydroxyphenyl)-1,2,5-thiadiazolidin-3-one 1,1-dioxide], for which the pIC50 on PTPN2 (i.e., TC-PTP) is no less than 6.00; on PTPN1 (i.e., PTP1B), no less than 6.00.

On to `O=C1CN(c2c(O)ccc(-c3cnn(CC4CCOCC4)c3)c2F)S(=O)(=O)N1` [Compound 171, 5-(2-fluoro-6-hydroxy-3-(1-((tetrahydro-2H-pyran-4-yl)methyl)-1H-pyrazol-4-yl)phenyl)-1,2,5-thiadiazolidin-3-one 1,1-dioxide], for which the pIC50 is no less than 6.00 at PTPN2 (i.e., TC-PTP) and no less than 6.00 on PTPN1 (i.e., PTP1B).

For the compound `O=C1CN(c2c(O)ccc(C3=CC(=O)OC3)c2F)S(=O)(=O)N1` [Compound 513, 5-(2-fluoro-6-hydroxy-3-(5-oxo-2,5-dihydrofuran-3-yl)phenyl)-1,2,5-thiadiazolidin-3-one 1,1-dioxide], the pIC50 is no less than 6.00 on PTPN2 (i.e., TC-PTP) and no less than 6.00 on PTPN1 (i.e., PTP1B).

As to `O=C1CN(c2c(O)ccc(C3=CC(CCc4ccccc4)NC3)c2F)S(=O)(=O)N1` (centres unmarked) [Compound 473, 5-(2-fluoro-6-hydroxy-3-(5-phenethyl-2,5-dihydro-1H-pyrrol-3-yl)phenyl)-1,2,5-thiadiazolidin-3-one 1,1-dioxide], the pIC50 on PTPN2 (i.e., TC-PTP) is no less than 6.00; at PTPN1 (i.e., PTP1B) it was no less than 6.00.

As for `O=C1CC(c2c(O)ccc(-c3cn(CC4CCCCC4)cn3)c2F)S(=O)(=O)N1` (centres unmarked) [Compound 419, 5-(3-(1-(cyclohexylmethyl)-1H-imidazol-4-yl)-2-fluoro-6-hydroxyphenyl)isothiazolidin-3-one 1,1-dioxide], the pIC50 on PTPN2 (i.e., TC-PTP) was less than 6.00; at PTPN1 (i.e., PTP1B), less than 6.00.

As to `O=C1CN(c2c(O)ccc(-c3ccnc(OCC4CC4)c3)c2F)S(=O)(=O)N1` [Compound 167, 5-(3-(2-(cyclopropylmethoxy)pyridin-4-yl)-2-fluoro-6-hydroxyphenyl)-1,2,5-thiadiazolidin-3-one 1,1-dioxide], the pIC50 at PTPN2 (i.e., TC-PTP) was no less than 6.00; on PTPN1 (i.e., PTP1B) it was no less than 6.00.

As for `O=C1CN(c2c(O)ccc(-c3c(F)ccc4[nH]ncc34)c2F)S(=O)(=O)N1` [Compound 152, 5-(2-fluoro-3-(5-fluoro-1H-indazol-4-yl)-6-hydroxyphenyl)-1,2,5-thiadiazolidin-3-one 1,1-dioxide], the pIC50 on PTPN2 (i.e., TC-PTP) is no less than 6.00; at PTPN1 (i.e., PTP1B), no less than 6.00.

With `CCOc1ccc(-c2ccc(O)c(N3CC(=O)NS3(=O)=O)c2F)cn1` [Compound 226, 5-(3-(6-ethoxypyridin-3-yl)-2-fluoro-6-hydroxyphenyl)-1,2,5-thiadiazolidin-3-one 1,1-dioxide], the pIC50 is no less than 6.00 at PTPN2 (i.e., TC-PTP) and no less than 6.00 on PTPN1 (i.e., PTP1B).

`CNC(=O)n1nc(-c2ccc(O)c(N3CC(=O)NS3(=O)=O)c2F)cc1C1CC1` [Compound 543, 5-cyclopropyl-3-(3-(1,1-dioxido-4-oxo-1,2,5-thiadiazolidin-2-yl)-2-fluoro-4-hydroxyphenyl)-N-methyl-1H-pyrazole-1-carboxamide]: the pIC50 on PTPN2 (i.e., TC-PTP) was no less than 6.00; on PTPN1 (i.e., PTP1B) it was no less than 6.00.

Take `O=C1CN(c2c(O)ccc(-c3cnn(CC(F)F)c3)c2F)S(=O)(=O)N1` [Compound 525, 5-(3-(1-(2,2-difluoroethyl)-1H-pyrazol-4-yl)-2-fluoro-6-hydroxyphenyl)-1,2,5-thiadiazolidin-3-one 1,1-dioxide]: the pIC50 at PTPN2 (i.e., TC-PTP) was no less than 6.00; on PTPN1 (i.e., PTP1B) it was no less than 6.00.

With `CO[C@H]1CC[C@@H](n2cc(-c3ccc(O)c(N4CC(=O)NS4(=O)=O)c3F)cn2)CC1` [Compound 383, 5-(2-fluoro-6-hydroxy-3-(1-((1s,4s)-4-methoxycyclohexyl)-1H-pyrazol-4-yl)phenyl)-1,2,5-thiadiazolidin-3-one 1,1-dioxide], the pIC50 is no less than 6.00 at PTPN2 (i.e., TC-PTP) and no less than 6.00 on PTPN1 (i.e., PTP1B).

For `O=C1CN(c2c(O)ccc(-c3cc(C4CC4)n(C4CC4)n3)c2F)S(=O)(=O)N1` [Compound 429, 5-(3-(1,5-dicyclopropyl-1H-pyrazol-3-yl)-2-fluoro-6-hydroxyphenyl)-1,2,5-thiadiazolidin-3-one 1,1-dioxide], the pIC50 on PTPN2 (i.e., TC-PTP) is no less than 6.00; on PTPN1 (i.e., PTP1B) it was no less than 6.00.

With `O=C1CN(c2c(O)ccc(-c3cc(C4CC4(F)F)no3)c2F)S(=O)(=O)N1` (centres unmarked) [Compound 490, 5-(3-(3-(2,2-difluorocyclopropyl)isoxazol-5-yl)-2-fluoro-6-hydroxyphenyl)-1,2,5-thiadiazolidin-3-one 1,1-dioxide], the pIC50 at PTPN2 (i.e., TC-PTP) is no less than 6.00; at PTPN1 (i.e., PTP1B) it was no less than 6.00.

For the compound `CCn1cc(-c2ccc(O)c(N3CC(=O)NS3(=O)=O)c2F)cn1` [Compound 486, 5-(3-(1-ethyl-1H-pyrazol-4-yl)-2-fluoro-6-hydroxyphenyl)-1,2,5-thiadiazolidin-3-one 1,1-dioxide], the pIC50 at PTPN2 (i.e., TC-PTP) was no less than 6.00; on PTPN1 (i.e., PTP1B), no less than 6.00.

With `O=C1CN(c2c(O)ccc(-c3cc(C#CC4CC4)n[nH]3)c2F)S(=O)(=O)N1` [Compound 352, 5-(3-(3-(cyclopropylethynyl)-1H-pyrazol-5-yl)-2-fluoro-6-hydroxyphenyl)-1,2,5-thiadiazolidin-3-one 1,1-dioxide], the pIC50 was no less than 6.00 at PTPN2 (i.e., TC-PTP) and no less than 6.00 on PTPN1 (i.e., PTP1B).

In the case of `O=C1CN(c2c(O)ccc(-c3cnn(C4CCCOC4)c3)c2F)S(=O)(=O)N1` (centres unmarked) [Compound 351, 5-(2-fluoro-6-hydroxy-3-(1-(tetrahydro-2H-pyran-3-yl)-1H-pyrazol-4-yl)phenyl)-1,2,5-thiadiazolidin-3-one 1,1-dioxide], the pIC50 on PTPN2 (i.e., TC-PTP) is no less than 6.00; on PTPN1 (i.e., PTP1B), no less than 6.00.

For the compound `O=C1CN(c2c(O)ccc(-c3ccc(N4CCCC4)nc3)c2F)S(=O)(=O)N1` [Compound 177, 5-(2-fluoro-6-hydroxy-3-(6-(pyrrolidin-1-yl)pyridin-3-yl)phenyl)-1,2,5-thiadiazolidin-3-one 1,1-dioxide], the pIC50 at PTPN2 (i.e., TC-PTP) is no less than 6.00; on PTPN1 (i.e., PTP1B), no less than 6.00.

Regarding `COC1CCN(c2cc(-c3ccc(O)c(N4CC(=O)NS4(=O)=O)c3F)[nH]n2)C1` (centres unmarked) [Compound 388, 5-(2-fluoro-6-hydroxy-3-(3-(3-methoxypyrrolidin-1-yl)-1H-pyrazol-5-yl)phenyl)-1,2,5-thiadiazolidin-3-one 1,1-dioxide], the pIC50 on PTPN2 (i.e., TC-PTP) was no less than 6.00; on PTPN1 (i.e., PTP1B), no less than 6.00.

As to `COc1cc(-c2ccc(O)c(N3CC(=O)NS3(=O)=O)c2F)c(F)cn1` [Compound 206, 5-(2-fluoro-3-(5-fluoro-2-methoxypyridin-4-yl)-6-hydroxyphenyl)-1,2,5-thiadiazolidin-3-one 1,1-dioxide], the pIC50 at PTPN2 (i.e., TC-PTP) is no less than 6.00; at PTPN1 (i.e., PTP1B), no less than 6.00.

For `N=C(N)N1CC=C(c2ccc(O)c(N3CC(=O)NS3(=O)=O)c2F)C1` [Compound 502, 3-(3-(1,1-dioxido-4-oxo-1,2,5-thiadiazolidin-2-yl)-2-fluoro-4-hydroxyphenyl)-2,5-dihydro-1H-pyrrole-1-carboximidamide], the pIC50 at PTPN2 (i.e., TC-PTP) is no less than 6.00; at PTPN1 (i.e., PTP1B) it was no less than 6.00.

As for `O=C1CN(c2c(O)ccc(-c3cn(CC(F)F)nc3F)c2F)S(=O)(=O)N1` [Compound 488, 5-(3-(1-(2,2-difluoroethyl)-3-fluoro-1H-pyrazol-4-yl)-2-fluoro-6-hydroxyphenyl)-1,2,5-thiadiazolidin-3-one 1,1-dioxide], the pIC50 on PTPN2 (i.e., TC-PTP) was no less than 6.00; at PTPN1 (i.e., PTP1B), no less than 6.00.

As to `O=C1CN(c2c(O)ccc(-c3ccn(CC4CCCCC4)c3)c2F)S(=O)(=O)N1` [Compound 272, 5-(3-(1-(cyclohexylmethyl)-1H-pyrrol-3-yl)-2-fluoro-6-hydroxyphenyl)-1,2,5-thiadiazolidin-3-one 1,1-dioxide], the pIC50 at PTPN2 (i.e., TC-PTP) was no less than 6.00; on PTPN1 (i.e., PTP1B), no less than 6.00.

On to `O=C1CN(c2c(O)ccc(-c3cnn(Cc4ccccc4)c3)c2F)S(=O)(=O)N1` [Compound 212, 5-(3-(1-benzyl-1H-pyrazol-4-yl)-2-fluoro-6-hydroxyphenyl)-1,2,5-thiadiazolidin-3-one 1,1-dioxide], for which the pIC50 at PTPN2 (i.e., TC-PTP) is no less than 6.00; on PTPN1 (i.e., PTP1B), no less than 6.00.

In the case of `O=C1CN(c2c(O)ccc(C3=CCSCC3)c2F)S(=O)(=O)N1` [Compound 294, 5-(3-(3,6-dihydro-2H-thiopyran-4-yl)-2-fluoro-6-hydroxyphenyl)-1,2,5-thiadiazolidin-3-one 1,1-dioxide], the pIC50 at PTPN2 (i.e., TC-PTP) is no less than 6.00; at PTPN1 (i.e., PTP1B) it was no less than 6.00.
